The subject of assay [1] is A431 cells. Nature of the assay: Cell viability (MTS) assay, cell killing. It is filed as cell-based, human. The note with it: read-out: [SO1861] IC50 cell killing, + fixed 10 μM cetuximab-saporin, calculated on concentration SO1861. The protocol: (§1) After treatment the cells were incubated for 72 hr at 37° C. before the cell viability was determined by a MTS-assay, performed according to the manufacturer's instruction (CellTiter 96® AQueous One Solution Cell Proliferation Assay, Promega). Briefly, the MTS solution was diluted 20× in DMEM without phenol red (PAN-Biotech GmbH) supplemented with 10% FBS. The cells were washed once with 200 μL/PBS well, after which 100 μL diluted MTS solution was added/well. The plate was incubated for approximately 20-30 minutes at 37° C. Subsequently, the OD at 492 nm was measured on a Thermo Scientific Multiskan FC plate reader (Thermo Scientific). For quantification the background signal of ‘medium only’ wells was subtracted from all other wells, before the cell viability percentage of treated/untreated cells was calculated, by dividing the background corrected signal of treated wells over the background corrected signal of the untreated wells (×100). […]
(§2) After treatment the cells were incubated for 72 hr at 37° C. before the cell viability was determined by a MTS-assay, performed according to the manufacturer's instruction (CellTiter 96® AQueous One Solution Cell Proliferation Assay, Promega). […] Subsequently, the optical density at 492 nm was measured on a Thermo Scientific Multiskan FC plate reader (Thermo Scientific). […]

Assay [2] relates to SK-BR-3 cells. Nature of the assay: Cell viability (MTS) assay, cell killing. Format: cell-based, human. The note with it: read-out: [SO1861] IC50 cell killing; SKBR3; + fixed 1.5 μM EGF-dianthin. Here is the method: as §1, §2

On to `CC(=O)O[C@H]1[C@H](O[C@@H]2OC[C@@H](O)[C@H](O)[C@H]2O)[C@@H](O)[C@H](O[C@@H]2[C@H](O)[C@@H](O[C@@H]3O[C@@H](C)[C@H](O[C@@H]4OC[C@@H](O)[C@H](O[C@@H]5OC[C@@H](O)[C@H](O)[C@H]5O)[C@H]4O)[C@@H](O)[C@H]3O)[C@H](OC(=O)[C@]34CCC(C)(C)C[C@H]3C3=CC[C@@H]5[C@@]6(C)CC[C@H](O[C@H]7O[C@H](C(=O)O)[C@@H](O)[C@H](O[C@@H]8OC[C@@H](O)[C@H](O)[C@H]8O)[C@H]7O[C@@H]7O[C@H](CO)[C@H](O)[C@H](O)[C@H]7O)[C@@](C)(C=O)[C@@H]6CC[C@@]5(C)[C@]3(C)C[C@H]4O)O[C@@H]2C)O[C@@H]1C` [SO1861], for which the IC50 in assay [1] is 600 nM; in assay [2] it was 800 nM.

Values taken from patent publication US20230277680A1, “CONJUGATE OF A SINGLE DOMAIN ANTIBODY, A SAPONIN AND AN EFFECTOR MOLECULE, PHARMACEUTICAL COMPOSITION COMPRISING THE SAME, THERAPEUTIC USE OF SAID PHARMACEUTICAL COMPOSITION” (SAPREME TECHNOLOGIES B.V., priority 2020, published 2023).
